We go through five compounds from patent publication US9529006B1, “Method for direct detection of lipid binding agents in membrane” (KING SAUD UNIVERSITY, priority 2015, dated 2016).

Where a SMILES comes first, the peptide text is derived from it. [ ]: non-standard residue; d: D form. Phe(ol) = N[C@H](CO)Cc1ccccc1; Aib = CC(C)(N)C(=O)O

Series [1] in a line: Electrophysiology, gA and Alm channel currents in lipid bilayer. The following applies: for conductance events in channels in lipid bilayer: gA V=200 mV, Alm V=150 mV. The protocol: (§1) As defined herein, a liposome is a spherical vesicle having at least one lipid bilayer. The liposome can be used as a vehicle for administration of nutrients and pharmaceutical drugs. Liposomes can be prepared routinely by disrupting biological membranes (such as by sonication). Two different kinds of processes to address membrane effects of all three different classes of MAAs were developed. First, the electrophysiology (EP) trials were performed to record membrane currents across lipid bilayer membranes doped with AMPs (antimicrobial peptides) or CDs (chemotherapy drugs). This technique helps to detect the presence of any stable, semi-stable or transient structures that might be induced into the lipid bilayer membrane as a result of MAA-lipid coexistence. To understand the membrane effect of aptamers, fluorescence (FL) measurements on liposome bound aptamers were performed. This method helps to understand the general lipid membrane binding of aptamers.
The membrane effects of AMPs were tested using established electrophysiology technique. Here, gA (gramicidin A) monomer with 15 amino acids was used for constructing gA channels and Alm (alamethicin) monomers were used for constructing Alm channels in a bilayer constructed using lipid 1,2-Dioleoyl-sn-Glycero-3-Phosphocholine. For the membrane effects of CDs, planar lipid bilayers were formed by applying a lipid cocktail of Phosphoethanolamine: phosphatydyleserine: phosphatidylcholine (5:3:2, v/v/v)/n-decane using the painting method over a 150 μm septum of a bilayer cuvette. The aptamer-lipid binding aspects were addressed by preparing liposomes using liposome technology. The liposomes were prepared with 1,2-dipalmitoyl-sn-glycero-3-phosphatidylcholine (DPPC) and 1,2-dipalmitoyl-sn-glycero-3-phospho-L-serine (sodium salt) (DPPS). Buffer with the liposome-bound and unbound aptamers containing 6-carboxyfluorescein (6-FAM) fluorescent tag attached at the 3′ end of the DNA sequence was separated using standard binding assay. The solution with bound aptamers was then investigated for fluorescence quantification. The following examples will further illustrate the direct detection method (DDM).
Membrane currents across lipid bilayer membranes doped with antimicrobial peptides (AMPs) or chemotherapy drugs (CDs) were investigated. The pattern of the general time dependent ion pore conducting current fluctuations is MAA specific. The amplitude and stability of the current events are found to vary due to the differences in the structures of MAAs. Some ion pores conduct currents with constant amplitudes over a period of time considered as pore lifetime. While a few other pores are found to conduct currents with fluctuating amplitudes over their lifetimes.
The gA channel activity was recorded at V=200 mV and Alm at V=150 mV. Here IgA=29±2, 113±5, 243±9 and 386±10 pA respectively are the discrete current levels 0, 1, 2, 3, . . . , etc. in Alm channel. Traces representing gA and Alm channel activities in phospholipid bilayers were recorded at filter frequencies 2 kHz and 20 kHz, respectively. A lower filter frequency for traces representing gA channel activity is alright because of the channel's relatively higher stability. In (B) the point count plots of the current traces through gA and Alm channels peak at discrete values of conductance.
AMP gA is reported to induce conductance events that conducts constant current IgA pA over its lifetime τgA. At the formation and breaking of a gA channel the current undergoes transitions between 0→IgA pA and IgA→0 pA respectively. The current transitions between 0 ? IgA pA happen instantaneously that means current transitions take almost no time. Here, IgA is constant (˜in low range pA) for any gA channel but TO appears with all possible values within a range 0 to a very high value in ms order]. With varied number of amino acids in gA monomer the value of both IgA and τgA vary. Detailed analysis can be found in ref. [2-6]. […]

A short description of series [2]: Electrophysiology, membrane currents across planar lipid bilayers doped with chemotherapy drugs. The following applies: 90 μM, pH=5.7, V=100 mV.
Protocol: The gA channel activity was recorded at V=200 mV and Alm at V=150 mV. […] Traces representing gA and Alm channel activities in phospholipid bilayers were recorded at filter frequencies 2 kHz and 20 kHz, respectively.
Series [3] can be described thus: Fluorescence measurements on liposome bound aptamers, liposomes containing PS. In kind it is binding. The following applies: liposomes containing 10% PS (DPPC and DPPS 9:1); 6-FAM tagged aptamer. As for the experimental part: as §1, with “This technique helps to detect the presence of any stable, semi-stable or transient structures that might be induced into the lipid bilayer membrane as a result of MAA-lipid coexistence.” left out, “This method helps to understand the general lipid membrane binding of aptamers.” left out
(§2) The membrane effects of AMPs were tested using established electrophysiology technique. […] The solution with bound aptamers was then investigated for fluorescence quantification. […]
(§3) The aptamer-lipid binding aspects were addressed by preparing liposomes using known liposome technology. […] The solution with bound aptamers was then investigated for fluorescence quantification.
(§4) Binding affinity and selectivity of designed DNA aptamers were measured. […] The fluorescence (FL) measured in relative fluorescence units (RFU) is plotted against the [DNA] aptamer concentration. […]

Series [4] in a line: Fluorescence measurements on liposome bound aptamers, liposome containing only PC. Type of series: binding. As to conditions: liposomes containing no PS. As for the experimental part: as §1, with “This technique helps to detect the presence of any stable, semi-stable or transient structures that might be induced into the lipid bilayer membrane as a result of MAA-lipid coexistence.” left out, “This method helps to understand the general lipid membrane binding of aptamers.” left out
as §2, §3, §4

Take `CC(=O)NC(C)(C)C(=O)N1CCC[C@H]1C(=O)NC(C)(C)C(=O)N[C@@H](C)C(=O)NC(C)(C)C(=O)N[C@@H](C)C(=O)N[C@@H](CCC(N)=O)C(=O)NC(C)(C)C(=O)N[C@H](C(=O)NC(C)(C)C(=O)NCC(=O)N[C@@H](CC(C)C)C(=O)NC(C)(C)C(=O)N1CCC[C@H]1C(=O)N[C@H](C(=O)NC(C)(C)C(=O)NC(C)(C)C(=O)N[C@@H](CCC(=O)O)C(=O)N[C@@H](CCC(N)=O)C(=O)N[C@H](CO)Cc1ccccc1)C(C)C)C(C)C` [Alm, alamethicin] (Ac-[Aib]P[Aib]A[Aib]AQ[Aib]V[Aib]GL[Aib]PV[Aib][Aib]EQ[Phe(ol)]): in series [1] (V=150 mV, level 0), the “discrete current level 0 in Alm channel” value is reported as 29±2 pA. The “discrete current level 1 in Alm channel” value in series [1] (V=150 mV, level 1) was 113±5 pA. Moreover, in series [1] (V=150 mV, level 2), the “discrete current level 2 in Alm channel” value was 243±9 pA. Further, in series [1] (V=150 mV, level 3), the “discrete current level 3 in Alm channel” value turned out to be 386±10 pA. Further, the “conductance events in channels in lipid bilayer” value in series [1] is “rectangular-shape conductance events”.
On to `COc1c(O[C@@H]2O[C@H](CO)[C@@H](O)[C@H](O)[C@H]2O)cc2c(c1OC)-c1ccc(SC)c(=O)cc1[C@@H](NC(C)=O)CC2` [TCC, thiocolchicoside], for which the “conductance events induced in lipid bilayer” value in series [2] is on record as “triangular-shaped conductance events”.
With “SIIAp1: designed DNA aptamer, sequence (5′ → 3′) CAGAAAAAAAC (DNA, backbone and methylation of C not given here; further chemistry not fully specified)”, in series [3], the “binding of aptamer with liposomes containing PS (fluorescence, RFU vs [DNA])” value is “selective binding”. The “binding of aptamer with liposome containing only PC (fluorescence)” value in series [4] is “low non-specific binding”.
“SIIAp2: designed DNA aptamer, sequence (5′ → 3′) CAGAAAAAAAT (DNA, backbone and methylation of C not given here; further chemistry not fully specified)”: in series [3], the “binding of aptamer with liposomes containing PS (fluorescence, RFU vs [DNA])” value is listed as “selective binding”.
Consider gramicidin A [gA], for which, in series [1], the “conductance events in channels in lipid bilayer” value was “rectangular-shape conductance events”.
